System: B6CBAF1/j hybrid mice
Experiment: Testosterone-induced hair loss in mice: hair loss area and follicle count
Assay type: in vivo
Settings: after two weeks; testosterone 10 mg/ml + each test substance 1 mg/ml; compared to testosterone alone (group T); FIG. 3
Method: B6CBAF1/j hybrid mice (5 weeks old, male, Charles River Japan) were acclimated for one week in a breeding room and then used from the time of 6 weeks after birth.
For use in an injection agent, a solvent was prepared to contain 15% of ethanol, 5% of NMP, and 80% of PBS. Solutions were prepared by mixing the solvent with the following solutes: group T (testosterone 10 mg/ml), group TD (testosterone 10 mg/ml+deoxycholic acid 1 mg/ml), group TR (testosterone 10 mg/ml+resveratrol 1 mg/ml), group TF (testosterone 10 mg/ml+finasteride 1 mg/ml), and group TRF (testosterone 10 mg/ml+resveratrol 1 mg/ml+finasteride 1 mg/ml).
The animals were anesthetized with isoflurane through inhalation and injected subcutaneously at the neck with 100 μl of a testosterone solution (10 mg/ml) every day. From a couple of weeks, they were photographed along with a scale bar to quantify a hair loss area. After six weeks of testing, the mice were sacrificed by means of a CO2 incubator. Test areas of the skin were taken, fixed with formalin, and prepared into paraffin blocks. The blocks were horizontally sectioned and dyed with H&E (Hematoxylin & Eosin) to count follicles per mm^2.

Oc1ccc(C=Cc2cc(O)cc(O)c2)cc1 [resveratrol]
increment in hair loss area: greatly reduced

From patent publication US20190125648A1, “COMPOSITION FOR PREVENTING, IMPROVING OR TREATING HAIR LOSS COMPRISING DEOXYCHOLIC ACID AS ACTIVE INGREDIENT” (priority 2016, published 2019)
